# Laboratory results published in patent US8563503B2, “Antibiotic, its nucleotide sequence, methods of construction and uses thereof” (Protein Design Lab. Ltd., priority 2011, dated 2013).
# Positions count from the first letter of the chain named.
# B1: PMC-SA2: Staphylococcus aureus pheromone AgrD II linked to C-terminus of allosteric colicin Ia′; SEQ ID NO. 15; plasmid pBHC-SA2 (protein)
# chain: SDPVRITNPAAESLGYDSDGREIMAVDIYLNPPRVDVFKGTPPAWSSFGNKTIWGGNEWVDDSPTRSDIEKRDKEITAYKNTLSAQQKENENKRTEAGKRLSAAIAAREKDENTLKTLRAGNADAADITRQEFRLLQAELREYGFRTEIAGYDALRLHTESRMLFADADSLRISPREARSLIEQAEKRQKDAQNADKKAADMLAEYERRKGILDTRLSELEKNGGAALAVLDAQQARLLGQQTRNDRAISEARNKLSSVTESLNTARNALTRAEQQLTQQKNTPDGKTIVSPEKFPGRSSTNHSIVVSGDPRFAGTIKITTSAVIDNRANLNYLLSHSGLDYKRNILNDRNPVVTEDVEGDKKIYNAEVAEWDKLRQRLLDARNKITSAESAVNSARNNLSARTNEQKHANDALNALLKEKENIRNQLSGINQKIAEEKRKQDELKATKDAINFTTEFLKSVSEKYGAKAEQLAREMAGQAKGKKIRNVEEALKTYEKYRADINKKINAKDRAAIAAALESVKLSDISSNLNRFSRGLGYAGKFTSLADWITEFGKAVRTENWRPLFVKTETIIAGNAATALVALVFSILTGSALGIIGYGLLMAVTGALIDESLVEKANKFWGIGVNACSSLF
# modifications: The peptide of PMC-SA2
# notes: Staphylococcus aureus pheromone AgrD II linked to C-terminus of allosteric colicin Ia′; 15; plasmid pBHC-SA2
# B2: PMC-SA4: Staphylococcus aureus pheromone AgrD IV linked to C-terminus of allosteric colicin Ia′; SEQ ID NO. 19; plasmid pBHC-SA4 (protein)
# chain: SDPVRITNPAAESLGYDSDGREIMGVDIYLNPPRVDVFKGTPPAWSSFGNKTIWGGNEWVDDSPTRSDIEKRDKEITAYKNTLSAQQKENENKRTEAGKRLSAAIAAREKDENTLKTLRAGNADAADITRQEFRLLQAELREYGFRTEIAGYDALRLHTESRMLFADADSLRISPREARSLIEQAEKRQKDAQNADKKAADMLAEYERRKGILDTRLSELEKNGGAALAVLDAQQARLLGQQTRNDRAISEARNKLSSVTESLNTARNALTRAEQQLTQQKNTPDGKTIVSPEKFPGRSSTNHSIVVSGDPRFAGTIKITTSAVIDNRANLNYLLSHSGLDYKRNILNDRNPVVTEDVEGDKKIYNAEVAEWDKLRQRLLDARNKITSAESAVNSARNNLSARTNEQKHANDALNALLKEKENIRNQLSGINQKIAEEKRKQDELKATKDAINFTTEFLKSVSEKYGAKAEQLAREMAGQAKGKKIRNVEEALKTYEKYRADINKKINAKDRAAIAAALESVKLSDISSNLNRFSRGLGYAGKFTSLADWITEFGKAVRTENWRPLFVKTETIIAGNAATALVALVFSILTGSALGIIGYGLLMAVTGALIDESLVEKANKFWGIYSTCYFIM
# modifications: The peptide of PMC-SA4
# notes: Staphylococcus aureus pheromone AgrD IV linked to C-terminus of allosteric colicin Ia′; 19; plasmid pBHC-SA4
# B3: PMC-SA3: Staphylococcus aureus pheromone AgrD III linked to C-terminus of allosteric colicin Ia′; SEQ ID NO. 17; plasmid pBHC-SA3 (protein)
# chain: B2 chain with S627I, T628N, Y630D, I632L, M633L
# modifications: The peptide of PMC-SA3
# notes: Staphylococcus aureus pheromone AgrD III linked to C-terminus of allosteric colicin Ia′; 17; plasmid pBHC-SA3
# Legend:
# [1] = tested on: Multiple-drug resistance Pseudomonas aeruginosa (clinical separated strain 13280); test: In vivo protection of mice infected by multiple-drug resistance Pseudomonas aeruginosa; parameters: species or system Kungming mice; conditions: fatal dose i.p.
# Description: (1) Drugs • PMC-PA, piperacillin, amikacin, ceftazidime, levofloxacin.
# Multiple-drug resistance Pseudomonas aeruginosa (clinical separated strain 13280, isolated by laboratory bacteria room of West China Hospital)
# Kungming mice (n=60), half male and half female, weighing 15-20 g were given intraperitoneal injection of multiple-drug resistance Pseudomonas aeruginosa, therein PMC-PA, piperacillin, amikacin, ceftazidime and levofloxacin experimental group were set respectively as 10 mice per group, while the control group was set as 10 mice per group. After given intraperitoneal injection of fatal dose of the bacterium, the mice in drug experimental groups respectively were given an intravenous injection of one kind of above drugs, the results were observed per 24 hours for continuous 10 days. The positive result was mouse's death.
# [2] = tested on: Staphylococcus aureus ATCC 29213; test: MIC against the infecting strain (Table 2); format: cell-based; conditions: ATCC29213
# Method: (§1) (3) Culture Solution • MH Broth Culture Solution: 25 g was added into […] distilled water, heat to dissolve, subpackaged, autoclaved at 116° C. for 20 minutes, and MH Solid Culture Medium, 36 g was added into 1000 ml distilled water, autoclaved at 116° C. for 20 minutes, used for drug sensitive test of Gram-positive and negative aerobic bacteria. • Blood culture solution for Enterococcus faecalis, which was prepared by adding defibration rabbit blood into the MH culture solution by 5-10% and cultured at 37° C. in 5% CO2 for 24 hours. 2. Experimental Methods (1) The Measurement of Minimum Inhibitory Concentration (MIC) • The Minimum Inhibitory Concentration (MIC) of PMC-SA1 was measured by Agar Doubling Dilution Method. The bacterium was inoculated on the surface of agar plate containing different concentration of drugs by multipoint inoculate instrument (Deneley A400). The bacterial content per point was 10^5 CFU/ml. After incubated at 37° C. for 18-24 hours, the result can be observed. The least concentration of drugs in plate culture solution without bacterium growing was Minimum Inhibitory Concentration (MIC) of the drug to the said bacteria. 3. Results
# [3] = tested on: Staphylococcus aureus MRSA BAA-42; test: MIC against the infecting strain (Table 2); format: cell-based; conditions: Staphylococcus aureus MRSA BAA-42
# Method: as §1
# [4] = tested on: Staphylococcus aureus ATCC 29213; test: Protection test in vivo (intravenous injection) of infected mice; parameters: species or system Kungming mice; conditions: mice, infected with 4.6 × 10^5 cfu/ml i.p., drug once intravenous
# Method: (§2) The drugs used in this embodiment were same with that used in embodiment 4.
# (§3) The above drugs were dissolved and diluted by sterilized water, and the injection concentrations of each drug were 10 mg/kg, 5 mg/kg and 2.5 mg/kg.
# (§4) After given intraperitoneal injection of fatal dose of above-mentioned bacteria, the mice of each drug experimental group respectively were given once intravenous injection of the drug by 10 mg, 5 mg, 2.5 mg/kg. The results were observed per 24 hours for 7-14 days. The positive result is mice's death.
# Enterococcus ATCC 700802 = test: as above; parameters: species or system Kungming mice; conditions: mice, infected with 7.0 × 10^6 cfu/ml i.p., drug once intravenous
# Method: as §2, §3, §4
# E. coli 02-1-65 = test: as above; parameters: species or system Kungming mice; conditions: mice, infected with 3.8 × 10^5 cfu/ml i.p., drug once intravenous
# Method: as §2, §3, §4
# [5] = tested on: Staphylococcus aureus MRSA BAA-42; test: as above; parameters: species or system Kungming mice; conditions: mice, infected with 6.5 × 10^5 cfu/ml i.p., drug once intravenous
# Method: as §2, §3, §4
# [6] = tested on: methicillin-resistant Staphylococcus aureus ATCC BAA-42; test: Bacteria growth curve (A595 nm), comparison of the novel antibiotics; format: cell-based; conditions: drug 5 μg/ml, 37° C., A595 nm per hour
# Method: The following experiment was set for comparing bacteriostasis effects of 6 kinds of the novel antibiotics. The experimental bacteriaum was United States Standard Strain methicillin-resistant Staphylococcus aureus ATCC BAA-42. 5 microliter of bacteria solution (10^6 CFU/ml level bacterium amount) was added into 10 ml culture solution containing 1% peptone, 1% NaCl, 0.5% yeast extract, 0.5% glucose and 0.1% K2HPO4, total of 8 groups were prepared. The first group as control was added 0.3 M NaCl+50 mM boric acid buffer fluid by the same volume as that of antibiosis polypeptide liquid added in any experimental groups, the second group was added penicillin G sodium by 5 μg/ml, PMC-SA1, PMC-SA2, PMC-SA3, PMC-SA4, PMC-SE and PMC-PA were added in the other experimental groups with preservative fluid being 0.3 M NaCl+50 mM boric acid buffer fluid by 5 ug/ml.
# The solution of above groups was put into 100 ml conical flask, 200 rpm, grew at 37° C. 100 μl was sampled per hour, and added onto 96-pore ELISA plate and measured bacteria grown cloudiness by spectrophotometer (A595 nm) color comparison. The bacteria growth curve was drawn up to compare the bacteriostasis efficacy of antibiosis polypeptide.
molecule,measurement,setting,value
CCN1CCN(C(=O)N[C@@H](C(=O)N[C@@H]2C(=O)N3[C@@H]2SC(C)(C)[C@@H]3C(=O)O)c2ccccc2)C(=O)C1=O [piperacillin],time in which mice were all dead,[1]; 50 mg/kg intravenous,≤ 3 days
C[C@H]1COc2c(N3CCN(C)CC3)c(F)cc3c(=O)c(C(=O)O)cn1c23 [levofloxacin],survival rate of mice in 10 days,[1]; 5 mg/kg intravenous,40%
NCC[C@H](O)C(=O)N[C@@H]1C[C@H](N)[C@@H](O[C@H]2O[C@H](CN)[C@@H](O)[C@H](O)[C@H]2O)[C@H](O)[C@H]1O[C@H]1O[C@H](CO)[C@@H](O)[C@H](N)[C@H]1O [amikacin],time in which mice were all dead,[1]; 5 mg/kg intravenous,≤ 4 days
CC(C)(O/N=C(\C(=O)N[C@@H]1C(=O)N2C(C(=O)[O-])=C(C[n+]3ccccc3)CS[C@H]12)c1csc(N)n1)C(=O)O [ceftazidime],survival rate of mice in 10 days,[1]; 50 mg/kg intravenous,20%
"Cc1nnc(SCC2=C(C(=O)[O-])N3C(=O)[C@@H](NC(=O)Cn4cnnn4)[C@H]3SC2)s1.[Na+] [Cefazolin, Cefazolin Sodium]",MIC,[2],7 µg/mL
same,MIC,[3],6 µg/mL
same,ED50,[4],29.11 mg/kg
same,ED50,Enterococcus ATCC 700802,>10 mg/kg
same,ED50,E. coli 02-1-65,>30 mg/kg
same,ED50,[5],9.04 mg/kg
B1,bacteriostasis effect on growth of methicillin-resistant Staphylococcus aureus (bacteria growth curve),[6],still less better
B2,bacteriostasis effect on growth of methicillin-resistant Staphylococcus aureus (bacteria growth curve),[6],less better
B3,bacteriostasis effect on growth of methicillin-resistant Staphylococcus aureus (bacteria growth curve),[6],still less better
